# According to US20110100079A1, “METHOD FOR IMPARTING STRESS TOLERANCE TO PLANT” (priority 2007, published 2011):
# Columns and labels:
# Assay type in all cases: in vivo
# “Momotaro” tomato [1] = test: Example 6 salt stress test (tomato), soil culture; details: 23° C., 100 ppm, 2 weeks; for Fresh weight, relative value (untreated plot = 100), Test 1 / Fresh weight, relative value (untreated plot = 100), Test 4 / Fresh weight, relative value (untreated plot = 100), Test 3 / Fresh weight, relative value (untreated plot = 100), Test 2: soil culture; for Fresh weight, relative value (untreated plot = 100), Test 1: EC 1.3 mS/cm; for Fresh weight, relative value (untreated plot = 100), Test 1 / Fresh weight, relative value (untreated plot = 100), Test 3 / Fresh weight, relative value (untreated plot = 100), Test 2 / Fresh weight, relative value (untreated plot = 100), Comparison 1: pF 1.7, two-leaf stage; for Fresh weight, relative value (untreated plot = 100), Test 4 / Fresh weight, relative value (untreated plot = 100), Test 2: EC 2 mS/cm; for Fresh weight, relative value (untreated plot = 100), Test 4: pF 1.7, five-leaf stage; for Fresh weight, relative value (untreated plot = 100), Test 3: EC 3 mS/cm; for Fresh weight, relative value (untreated plot = 100), Comparison 1: stress-free: soil culture, EC 1 mS/cm
# Description: (1) A. soil culture (a) Comparative example conditions (stress-free optimum growth conditions) Cultivation temperature: 23° C., EC: 1.0 mS/cm (cultivation with Kureha gardening soil), pF value: 1.7 (capillaries in a saturated state) (b) Example conditions (salt stress conditions) Cultivation temperature: 23° C., EC: 1.3, 2.0, 3.0 mS/cm (cultivation with Kureha gardening soil), pF value: 1.7 (capillaries in a saturated state)
# (§1) (a) Comparative example conditions (stress-free optimum growth conditions) Cultivation temperature: 23° C., EC: 1.3 mS/cm (Otsuka ½A formulation) (b) Example conditions (salt stress conditions) Cultivation temperature: 23° C., EC: 2.7, 3.9, 4.8 mS/cm (cultivation with Kureha gardening soil) (2) Illuminance: 5000 Lux (fluorescent light), light/dark cycle: 16 hours/8 hours (3) Employed soil: Kureha gardening soil manufactured by Kureha Corporation (fertilizer components: N:P:K=0.4:1.9:0.6 g/kg soil) (4) Employed solution culture medium: Otsuka ½A formulation: a mixed solution of Otsuka House No. 1 (N:P:K=10:8:27) 7.5 g/10 L and Otsuka House No. 2 (N:P:K:Ca=10:0:0:23) 5 g/10 L, total nitrogen: 130 ppm, phosphoric acid: 60 ppm, potassium: 203 ppm) (5) Cultivation period: 2 weeks (6) Plant preparation: A 50-cell tray was filled with Kureha gardening soil manufactured by Kureha Corporation (fertilizer components: N:P:K=0.4:1.9:0.6 g/kg soil), and seeds of a “Momotaro” tomato or tubers of a “Danshaku” potato were sowed, thinly covered with Kureha gardening soil, and sufficiently watered to allow the seeds or the tubers to sprout. When the leaves in the 2-leaf stage or the 5-leaf stage fully unfolded, the soil on the tomato roots or the potato roots was carefully washed away with running water, and a test was performed. (7) Test chemicals: POE (20) sorbitan monolauric acid ester: Reodol TW-L120 (Kao Corporation) POE (20) sorbitan monopalmitic acid ester: Reodol TW-P120 (Kao Corporation) POE (20) sorbitan monostearic acid ester: Reodol TW-S120 (Kao Corporation) POE (20) sorbitan monooleic acid ester: Reodol TW-O120 (Kao Corporation) Sorbitan monooleic acid ester: Emasol 0-10(F) (Kao Corporation) POE (6) sorbitan monooleic acid ester: Reodol TW-O106 (Kao Corporation) Alkyl (number of carbon atoms: 10) polyglucoside: AG-10LK (Kao Corporation) Alkyl (number of carbon atoms: 12 to 14) polyglucoside: AG-124 (Kao Corporation) Sucrose fatty acid ester (number of carbon atoms: C18, HLB: 5): S-570 (Mitsubishi-Kagaku Foods Corporation) Sucrose fatty acid ester (number of carbon atoms: C18, HLB: 9): S-970 (Mitsubishi-Kagaku Foods Corporation) Sucrose fatty acid ester (number of carbon atoms: C18, HLB: 11): S-1170 (Mitsubishi-Kagaku Foods Corporation) Sucrose fatty acid ester (number of carbon atoms: C18, HLB: 15): 5-1570 (Mitsubishi-Kagaku Foods Corporation) Sucrose fatty acid ester (number of carbon atoms: C16, HLB: 15): P-1570 (Mitsubishi-Kagaku Foods Corporation) Sucrose fatty acid ester (number of carbon atoms: C18:1, HLB: 15): O-1570 (Mitsubishi-Kagaku Foods Corporation) (8) Amount of treatment solution applied: 10 ml/specimen for leaf spraying, 250 ml/specimen for hydroponic culture (treatment of underground portion) (9) 50 ml/specimen for soil culture (treatment of underground portion)
# The environmental conditions in a climatic chamber were controlled so as to have a temperature of 23° C., an illuminance by a fluorescent light of 5000 Lux, and a daily light-dark cycle of a 16-hour light period and an 8-hour dark period. Tomatoes as prepared above were transplanted in size-3 (9 cm) pots. During the test period, the EC value was controlled by adding a suitable amount of a 10% NaCl solution once a day so as to attain a specific salt stress value. A treatment solution containing a compound of Table 1 in a specific concentration (the remainder was water) was prepared and sprayed onto the leaves or applied to the underground portions. […]
# tomato = test: Example 7 drying stress test (tomato), soil culture; details: 23° C., 100 ppm, 2 weeks; for Fresh weight, relative value (untreated plot = 100), Comparison 1: stress-free: tomato soil culture, EC 1, pF 1.7, two-leaf stage; for Fresh weight, relative value (untreated plot = 100), Test 1 / Fresh weight, relative value (untreated plot = 100), Test 4 / Fresh weight, relative value (untreated plot = 100), Test 2 / Fresh weight, relative value (untreated plot = 100), Test 3: tomato soil culture; for Fresh weight, relative value (untreated plot = 100), Test 1: EC 1, pF 2.8, two-leaf stage; for Fresh weight, relative value (untreated plot = 100), Test 4: EC 1, pF 3.5, five-leaf stage; for Fresh weight, relative value (untreated plot = 100), Test 2: EC 1, pF 3.5, two-leaf stage; for Fresh weight, relative value (untreated plot = 100), Test 3: EC 1, pF 4.1, two-leaf stage
# Description: The environmental conditions in a climatic chamber were controlled so as to have a temperature of 23° C., an illuminance by a fluorescent light of 5000 Lux, and a daily light-dark cycle of a 16-hour light period and an 8-hour dark period. Tomatoes as prepared above were transplanted in size-3 (9 cm) pots. During the test period, the pF value was controlled by adding a suitable amount of tap water once a day so as to attain a specific drying stress value. A treatment solution containing a compound of Table 1 in a specific concentration (the remainder was water) was prepared and sprayed onto the leaves or applied to the underground portions. […] A comparative example was constructed to reflect the drying stress-free optimum cultivation conditions to investigate the plant energizing ability. […] Moreover, when the products of the present invention and the comparative products were compared, the stress tolerance imparting ability of the products of the present invention was higher in respective drying stress conditions.
# “Momotaro” tomato [2] = test: Example 6 salt stress test (tomato), hydroponic culture; details: 23° C., 100 ppm, 2 weeks; for Fresh weight, relative value (untreated plot = 100), Test 5 / Fresh weight, relative value (untreated plot = 100), Test 8 / Fresh weight, relative value (untreated plot = 100), Test 6 / Fresh weight, relative value (untreated plot = 100), Test 7: hydroponic culture; for Fresh weight, relative value (untreated plot = 100), Test 5: EC 2.7 mS/cm; for Fresh weight, relative value (untreated plot = 100), Test 5 / Fresh weight, relative value (untreated plot = 100), Test 6 / Fresh weight, relative value (untreated plot = 100), Test 7 / Fresh weight, relative value (untreated plot = 100), Comparison 2: two-leaf stage; for Fresh weight, relative value (untreated plot = 100), Test 8 / Fresh weight, relative value (untreated plot = 100), Test 6: EC 3.9 mS/cm; for Fresh weight, relative value (untreated plot = 100), Test 8: five-leaf stage; for Fresh weight, relative value (untreated plot = 100), Test 7: EC 4.8 mS/cm; for Fresh weight, relative value (untreated plot = 100), Comparison 2: stress-free: hydroponic culture, EC 1.3 mS/cm
# Description: as §1
# The environmental conditions in a climatic chamber were controlled so as to have a temperature of 23° C., an illuminance by a fluorescent light of 5000 Lux, and a daily light-dark cycle of a 16-hour light period and an 8-hour dark period. Tomatoes as prepared above were planted in 250 ml polyethylene bottles each filled with a solution culture medium having a different EC value. Different EC values were achieved by taking a ½ Otsuka A formulation having an EC value of 1.3 as a standard and suitably increasing the fertilizer concentration through proportional counting. A treatment solution containing a compound of Table 1 in a specific concentration (the remainder was water) was prepared and sprayed onto the leaves or applied to the underground portion. In each test plot, 10 specimens were prepared for replication, and the average of the fresh weight of each specimen 2 weeks after the beginning of the test was calculated and expressed as a relative value where “100” indicates a result identical to that of the untreated plot of a given EC condition. […]
Compound,"Fresh weight, relative value (untreated plot = 100), Comparison 1 (tomato; leaf)","Fresh weight, relative value (untreated plot = 100), Test 1 (tomato; leaf)","Fresh weight, relative value (untreated plot = 100), Test 4 (tomato; leaf)","Fresh weight, relative value (untreated plot = 100), Test 2 (tomato; leaf)","Fresh weight, relative value (untreated plot = 100), Test 3 (tomato; leaf)","Fresh weight, relative value (untreated plot = 100), Test 5 (“Momotaro” tomato [2]; leaf)","Fresh weight, relative value (untreated plot = 100), Test 8 (“Momotaro” tomato [2]; leaf)","Fresh weight, relative value (untreated plot = 100), Test 6 (“Momotaro” tomato [2]; leaf)","Fresh weight, relative value (untreated plot = 100), Test 7 (“Momotaro” tomato [2]; leaf)","Fresh weight, relative value (untreated plot = 100), Comparison 2 (“Momotaro” tomato [2]; leaf)","Fresh weight, relative value (untreated plot = 100), Test 1 (“Momotaro” tomato [1]; leaf)","Fresh weight, relative value (untreated plot = 100), Test 4 (“Momotaro” tomato [1]; leaf)","Fresh weight, relative value (untreated plot = 100), Test 2 (“Momotaro” tomato [1]; leaf)","Fresh weight, relative value (untreated plot = 100), Test 3 (“Momotaro” tomato [1]; leaf)","Fresh weight, relative value (untreated plot = 100), Comparison 1 (“Momotaro” tomato [1]; leaf)",further results
"O=C(O)[C@@H]1CCCN1 [Comparative product 2, Proline, reference compound]",101,102,101,102,101,102,101,102,102,102,–,–,–,–,–,"Fresh weight, relative value (untreated plot = 100), Test 1 (“Momotaro” tomato [1]; underground portion): 103; Fresh weight, relative value (untreated plot = 100), Test 4 (“Momotaro” tomato [1]; underground portion): 100; Fresh weight, relative value (untreated plot = 100), Test 3 (“Momotaro” tomato [1]; underground portion): 100; Fresh weight, relative value (untreated plot = 100), Comparison 1 (tomato; underground portion): 102; Fresh weight, relative value (untreated plot = 100), Test 1 (tomato; underground portion): 102; Fresh weight, relative value (untreated plot = 100), Test 4 (tomato; underground portion): 100; Fresh weight, relative value (untreated plot = 100), Test 2 (tomato; underground portion): 103; Fresh weight, relative value (untreated plot = 100), Test 3 (tomato; underground portion): 101; Fresh weight, relative value (untreated plot = 100), Test 5 (“Momotaro” tomato [2]; underground portion): 103; Fresh weight, relative value (untreated plot = 100), Test 8 (“Momotaro” tomato [2]; underground portion): 100; Fresh weight, relative value (untreated plot = 100), Test 6 (“Momotaro” tomato [2]; underground portion): 103; Fresh weight, relative value (untreated plot = 100), Test 7 (“Momotaro” tomato [2]; underground portion): 102; Fresh weight, relative value (untreated plot = 100), Comparison 2 (“Momotaro” tomato [2]; underground portion): 103"
POE (20) sorbitan monolauric acid ester [Product of present invention 12],101,130,148,162,135,136,147,160,135,101,131,146,155,133,101,–
Alkyl (C10) polyglycoside [Product of present invention 15],101,121,139,147,126,125,138,145,125,101,121,134,142,121,101,–
